In ChEMBL document CHEMBL5500415, “Design of a Lead-Like Cysteine-Targeting Covalent Library and the Identification of Hits to Cys55 of Bfl-1” (J Med Chem, 2024):
pIC50: −log10 of the molar value.

What was measured:
Bcl-2-related protein A1 = target: T1, Bcl-2-related protein A1 (Homo sapiens, UniProt Q16548); test: Inhibition of human recombinant N-terminal his tagged Bfl-1 (1 to 151 residues) expressed in Escherichia coli BL21-Gold (DE3) cells using HyLite Fluor 647-labeled BIM peptide as substrate incubated for 120 mins by TR-FRET assay
T1 sequence (Q16548 whole entry): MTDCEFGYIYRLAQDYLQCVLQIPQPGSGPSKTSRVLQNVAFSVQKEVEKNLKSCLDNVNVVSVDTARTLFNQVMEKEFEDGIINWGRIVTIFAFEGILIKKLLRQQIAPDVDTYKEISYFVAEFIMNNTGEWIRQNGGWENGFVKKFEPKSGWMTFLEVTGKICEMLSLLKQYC

[1] = target: T2, Bcl-2-related protein A1 (Homo sapiens) (UniProt Q16548); test: Binding affinity to N-terminal His6-tagged recombinant human Bfl-1 (1 to 151 residues) expressed in Escherichia coli BL21-Gold (DE3) cells assessed as Kinact/ki incubated for 10 to 90 mins by MS analysis; settings: time 10-90 min
T2 sequence (whole entry): T1 sequence (Q16548 whole entry)

[2] = Lipophilicity, logD of compound at pH 7.4 by shake-flask method; format: physicochemical; settings: buffer
[3] = GSH reactivity assessed as half life at pH 7.4 incubated for 24 hrs by LC-UV-MS analysis; format: physicochemical; settings: glutathione (GSH) solution

| Compound | pIC50 (Bcl-2-related protein A1) | K [1] | logD [2] | half-life [3] |
| --- | --- | --- | --- | --- |
| C=CC(=O)N(Cc1ccc(OC)cc1)c1cccc(Cl)c1 | 4.63 | 7.5 M⁻¹ s⁻¹ |  |  |
| C=CC(=O)Nc1cc(CN2CCCC2)ccc1-c1ccc(OC)cc1C | 4.74 | 6.8 M⁻¹ s⁻¹ |  |  |
| C=CC(=O)N1CCC[C@@H]1c1ccccc1 | 3.32 | 0.7 M⁻¹ s⁻¹ | 1.7 | 13.7 h |
| C=CC(=O)N1C[C@@H](Oc2cc(Cl)c(F)cc2C#N)[C@H]1CCC (racemic) | 4.98 | 9.5 M⁻¹ s⁻¹ |  |  |
| C=CC(=O)N(Cc1ccccc1OCC(N)=O)c1ccc(Cl)cc1 | 4.77 | 5.5 M⁻¹ s⁻¹ |  |  |
| C=CC(=O)N(C)[C@@H](c1ccc(Cl)cc1)C1CCOCC1 (racemic) | 4.04 | 0.8 M⁻¹ s⁻¹ |  |  |
